# Measured values: ChEMBL document CHEMBL5325393, “A mini-review on synthesis and antiviral activity of natural product oxetanocin A derivatives” (Bioorg Med Chem, 2022)
# Experiments:
# [1] = tested on: HUVEC; assay: Angiogenic activity against HUVEC cells assessed as relative area of tube formation at 100 uM incubated for 10 days by tube formation assay; type: functional, Homo sapiens; settings: time 10 day
# [2] = tested on: Cytomegalovirus; assay: Antiviral activity against CMV AD-169 infected in HEL cells assessed as reduction in virus plaque formation; type: functional, organism-based; settings: Human betaherpesvirus 5, AD-169, HEL
# [3] = tested on: Human immunodeficiency virus 1; assay: Antiviral activity against HIV-1 HTLV-IIIB infected in human MT4 cells assessed as inhibition of viral replication incubated for 4 days by immunofluorescence assay; type: functional, organism-based; settings: Human immunodeficiency virus 1, HTLV-IIIB, MT4, 96 h
# [4] = tested on: MT4; assay: Cytotoxicity against human MT4 cells assessed as inhibition of cell growth; type: functional
# [5] = tested on: Human betaherpesvirus 5; assay: Antiviral activity against HCMV AD169 infected in HELF cells by plaque reduction assay; type: functional, organism-based; settings: Human betaherpesvirus 5, AD169, HELF
# [6] = tested on: Human immunodeficiency virus; assay: Antiviral activity against HIV assessed as inhibition of viral growth; type: functional, organism-based; settings: Human immunodeficiency virus 1
# [7] = tested on: Human immunodeficiency virus; assay: Antiviral activity against HIV infected in human MT4 cells by plaque reduction assay; type: functional, organism-based; settings: Human immunodeficiency virus 1, MT4
# [8] = tested on: Human immunodeficiency virus 1; assay: Antiviral activity against HIV-1 assessed as inhibition of viral replication; type: functional, organism-based
# [9] = tested on: Human alphaherpesvirus 2; assay: Antiviral activity against HSV-2 assessed as inhibition of cytopathic effect at 5.8 ug per well relative to control; type: functional
# [10] = Cytotoxicity against African green monkey Vero cells assessed as inhibition of cell growth at 132.6 microg/ml relative to control; type: toxicity, cell-based; settings: chlorocebus sabaeus, at 132.6 µg/mL
# [11] = tested on: Human betaherpesvirus 5; assay: Antiviral activity against HCMV assessed as inhibition of viral growth; type: functional, organism-based
# [12] = tested on: Human immunodeficiency virus 1; assay: Antiviral activity against HIV-1 HTLV-IIIB infected in human MT4 cells assessed as inhibition of viral replication; type: functional, organism-based; settings: Human immunodeficiency virus 1, HTLV-IIIB
# [13] = tested on: Human immunodeficiency virus; assay: Antiviral activity against HIV RF assessed as inhibition of viral growth; type: functional, organism-based; settings: Human immunodeficiency virus 1, RF
# [14] = tested on: Human alphaherpesvirus 2; assay: Antiviral activity against HSV-2 186 infected in African green monkey Vero cells assessed as reduction in virus induced cytopathogenicity by plaque reduction assay; type: functional, organism-based; settings: Human alphaherpesvirus 2, 186, Vero
# [15] = tested on: Hepatitis B virus; assay: Antiviral activity against HBV infected in human HepG2.2.15 cells assessed as reduction in virus induced cytopathogenicity by Southern blot analysis; type: functional, organism-based
# [16] = Cytotoxicity against human Detroit 551 cells assessed as inhibition of cell growth by colorimetric method; type: toxicity, cell-based
# [17] = Cytotoxicity against human CCD-18Co cells assessed as inhibition of cell growth by colorimetric method; type: toxicity, cell-based
# [18] = tested on: Hepatitis B virus; assay: Antiviral activity against HBV infected in human HB611 cells assessed as inhibition of viral DNA replication incubated for 15 days by SDS-PAGE based autoradiographic analysis; type: functional, organism-based; settings: HB611, 360 h
# [19] = Cytotoxicity against human HB611 cells assessed as inhibition of cell growth incubated for 48 hrs by colorimetric method; type: functional
# [20] = tested on: Murid betaherpesvirus 1; assay: Antiviral activity against MCMV Smith infected in MEF cells assessed as reduction in plaque formation by plaque reduction assay; type: functional; settings: Murid betaherpesvirus 1, Smith, read-out: ED50 (the source's name)
# [21] = tested on: Human betaherpesvirus 5; assay: Antiviral activity against HCMV AD169 infected in HEL cells assessed as reduction in virus induced cytopathogenicity by plaque reduction assay; type: functional, organism-based; settings: Human betaherpesvirus 5, AD169, HEL
# [22] = tested on: Human alphaherpesvirus 1; assay: Antiviral activity against HSV-1 KOS infected in African green monkey Vero cells assessed as reduction in virus induced cytopathogenicity by plaque reduction assay; type: functional, organism-based; settings: Human alphaherpesvirus 1, KOS
# [23] = tested on: Human immunodeficiency virus 1; assay: Antiviral activity against HIV-1 HTLV-IIIB infected in human MT4 cells assessed as reduction in virus induced cytopathogenicity by immunofluorescence assay; type: functional, organism-based; settings: Human immunodeficiency virus 1, HTLV-IIIB
# [24] = tested on: Human alphaherpesvirus 1; assay: Potency index, ratio of acyclovir EC50 to test compound EC50 for antiviral activity against HSV-1 KOS infected in African green monkey Vero cells assessed as reduction in virus induced cytopathogenicity by plaque reduction assay; type: functional
# [25] = tested on: Human alphaherpesvirus 2; assay: Potency index, ratio of acyclovir EC50 to test compound EC50 for antiviral activity against HSV-2 186 infected in African green monkey Vero cells assessed as reduction in virus induced cytopathogenicity by plaque reduction assay; type: functional
# [26] = tested on: Human alphaherpesvirus 1; assay: Antiviral activity against HSV-1 assessed as inhibition of viral growth; type: functional, organism-based
# [27] = tested on: Human alphaherpesvirus 2; assay: Antiviral activity against HSV-2 assessed as inhibition of viral growth; type: functional, organism-based
# [28] = tested on: Hepatitis B virus; assay: Antiviral activity against HBV assessed as inhibition of viral growth; type: functional, organism-based
# [29] = tested on: Human alphaherpesvirus 3; assay: Antiviral activity against thymidine kinase positive VZV Ellen infected in HFF cells assessed as reduction in viral replication incubated for 10 days by crystal violet staining based microplate reader analysis; type: functional, organism-based; settings: Human alphaherpesvirus 3, Ellen, 240 h
# [30] = tested on: Human alphaherpesvirus 3; assay: Antiviral activity against thymidine kinase positive VZV OKA infected in HFF cells assessed as reduction in viral replication incubated for 10 days by crystal violet staining based microplate reader analysis; type: functional, organism-based; settings: Human alphaherpesvirus 3, OKA, 240 h
# [31] = tested on: Human alphaherpesvirus 3; assay: Antiviral activity against thymidine kinase positive VZV DKG infected in HFF cells assessed as reduction in viral replication incubated for 10 days by crystal violet staining based microplate reader analysis; type: functional, organism-based; settings: Human alphaherpesvirus 3, DKG, 240 h
# [32] = tested on: Human alphaherpesvirus 3; assay: Antiviral activity against thymidine kinase positive VZV V8907 infected in HFF cells assessed as reduction in viral replication incubated for 10 days by crystal violet staining based microplate reader analysis; type: functional, organism-based; settings: Human alphaherpesvirus 3, V8907, HFF, 240 h
# [33] = tested on: Human alphaherpesvirus 3; assay: Antiviral activity against thymidine kinase positive VZV V8602/5-1-1 infected in HFF cells assessed as reduction in viral replication incubated for 10 days by crystal violet staining based microplate reader analysis; type: functional, organism-based; settings: Human alphaherpesvirus 3, V8602/5-1-1, HFF, 240 h
# [34] = tested on: Human alphaherpesvirus 1; assay: Antiviral activity against thymidine kinase positive HSV-1 E-377 infected in HFF cells assessed as reduction in viral replication incubated for 3 days by crystal violet staining based microplate reader analysis; type: functional, organism-based; settings: Human alphaherpesvirus 1, E-377, HFF, 72 h
# [35] = tested on: Human alphaherpesvirus 1; assay: Antiviral activity against thymidine kinase positive HSV-1 123 infected in HFF cells assessed as reduction in viral replication incubated for 3 days by crystal violet staining based microplate reader analysis; type: functional, organism-based; settings: Human alphaherpesvirus 1, 123, HFF, 72 h
# [36] = tested on: Human alphaherpesvirus 1; assay: Antiviral activity against thymidine kinase positive HSV-1 SC-16 infected in HFF cells assessed as reduction in viral replication incubated for 3 days by crystal violet staining based microplate reader analysis; type: functional, organism-based; settings: Human alphaherpesvirus 1, SC-16, HFF, 72 h
# [37] = Antiproliferative against human HFF cells assessed as inhibition of cell growth by neutral red uptake analysis; type: toxicity, cell-based
# [38] = tested on: Human alphaherpesvirus 1; assay: Antiviral activity against lethal systemic HSV-1 123 infected in po dosed Swiss mouse model assessed as increase in animal survival administered as single double strength loading dose at 7 hrs post-inoculation and single strength dose at 23, 31, 47, 55, 71, 79 hrs post-inoculation and monitored for 21 days; type: functional; settings: time 21 day
# [39] = tested on: Human alphaherpesvirus 1; assay: Antiviral activity against lethal intracerebral HSV-1 123 infected in po dosed Swiss mouse model assessed as increase in animal survival administered as single double strength loading dose at 7 hrs post-inoculation and single strength dose at 23, 31, 47, 55, 71, 79 hrs post-inoculation and monitored for 21 days; type: functional; settings: time 21 day
# [40] = tested on: Human alphaherpesvirus 2; assay: Antiviral activity against thymidine kinase deficient HSV-2 assessed as inhibition of viral replication by plaque reduction assay; type: functional, organism-based
smiles,measurement,setting,value
COc1nc(N)c2ncn([C@@H]3C[C@H](CO)[C@H]3CO)c2n1,Ratio,[1],1.87
C=C1C[C@@H](n2cnc3c(=O)[nH]c(N)nc32)[C@@H]1CO,EC50,[2],70 µg/mL
O=c1[nH]cnc2c1ncn2[C@@H]1O[C@H](CO)[C@H]1CO,EC50,[3],2200 nM
same,CC50,[4],330 µM
same,IC50,[5],18 µM
Nc1ncnc2c1ncn2[C@H]1C[C@@H](CO)C1,EC50,[6],800 nM
O=C(Nc1ncnc2c1ncn2[C@@H]1O[C@H](CO)[C@H]1O)c1ccccc1,IC50,[7],5.5 µg/mL
Nc1ncnc2c1ncn2[C@@H]1O[C@H](CO)[C@H]1CO,EC50,[3],1400 nM
same,EC50,[8],1.4 µg/mL
same,inhibition at 5.8 µg/disc,[9],50%
same,inhibition at 132.6 microg/ml,[10],50%
same,IC50,[11],13 µg/mL
same,IC50,[12],1700 nM
same,IC50,[5],13 µM
same,IC50,[7],4.3 µg/mL
same,IC50,[13],0.5 µg/mL
Nc1ccn([C@@H]2CS[C@H](CO)O2)c(=O)n1 [LAMIVUDINE],EC50,[14],0.39 µg/mL
same,EC50,[15],0.009 µg/mL
Nc1nc2c(ncn2[C@@H]2O[C@H](CO)[C@H]2CO)c(=O)[nH]1,EC50,[3],2200 nM
same,IC50,[5],1 µM
same,IC50,[16],> 300 µM
same,IC50,[17],> 300 µM
same,IC50,[18],1500 nM
same,CC50,[19],> 1 mM
Nc1nc2c(ncn2COC(CO)CO)c(=O)[nH]1 [GANCICLOVIR],EC50,[20],1 µg/mL
same,EC50,[21],0.71 µg/mL
Nc1ncnc2c1ncn2[C@@H]1C[C@](F)(CO)[C@H]1CO,EC50,[22],2.72 µg/mL
same,EC50,[14],1.33 µg/mL
same,EC50,[21],0.18 µg/mL
same,EC50,[23],3.73 µg/mL
same,EC50,[15],0.41 µg/mL
same,Ratio EC50,[24],7
same,Ratio EC50,[25],7
Nc1nc(=O)c2ncn([C@@H]3C[C@H](CO)[C@H]3CO)c2[nH]1 [LOBUCAVIR],IC50,[11],400 nM
same,IC50,[26],47 nM
same,IC50,[27],80 nM
same,IC50,[28],860 nM
same,IC50,[6],300 nM
same,EC50,[20],0.1 µg/mL
Cc1cn([C@@H]2O[C@H](CO)[C@H]2CO)c(=O)[nH]c1=O,EC50,[29],10 nM
same,EC50,[30],10 nM
same,EC50,[31],10 nM
same,EC50,[32],10 nM
same,EC50,[33],10 nM
same,EC50,[34],12 nM
same,EC50,[35],12 nM
same,EC50,[36],12 nM
same,IC50,[37],> 100 µM
same,ED50,[38],142 mg/kg.day
same,ED50,[39],211 mg/kg.day
Nc1nc(Cl)nc2c1ncn2C1CC2(C1)CC(CO)(CO)C2,Ratio,[1],3.59
Nc1nc2c(ncn2COCCO)c(=O)[nH]1 [ACYCLOVIR],IC50,[40],12 µM
same,EC50,[34],200 nM
same,EC50,[35],200 nM
same,EC50,[36],200 nM
same,ED50,[38],>500 mg/kg.day
same,ED50,[39],>500 mg/kg.day
same,EC50,[26],0.32 µg/mL
same,EC50,[27],0.39 µg/mL
same,EC50,[22],0.41 µg/mL
same,EC50,[14],0.18 µg/mL
same,EC50,[2],40 µg/mL
Cc1cn([C@H]2C[C@H](N=[N+]=[N-])[C@@H](CO)O2)c(=O)[nH]c1=O [ZIDOVUDINE],EC50,[8],0.003 µg/mL
Nc1nc2c(ncn2N2C[C@H](CO)[C@H]2CO)c(=O)[nH]1,EC50,[8],0.46 µg/mL
same,EC50,[26],5.36 µg/mL
same,EC50,[27],6.32 µg/mL
Nc1nc(Cl)nc2c1ncn2[C@@H]1C[C@@H](CO)[C@H]1CO,Ratio,[1],3.43
